Experimental data reported in ChEMBL document CHEMBL4627310, “Design, synthesis and biological evaluation of 3-nitro-1,8-naphthalimides as potential antitumor agents” (Bioorg Med Chem Lett, 2020).
Activity calls are given as the source filed them. The rule behind the calls is not given here.

Assays:
[1] = Toxicity in mouse xenografted with human HepG2 cells assessed as effect on body weight at 5 to 15 mg/kg; format: organism-based; settings: in vivo
A549 = assay: Antiproliferative activity against human A549 cells assessed as cell growth inhibition measured after 48 hrs by MTT assay; format: functional, cell-based; settings: A549, 48 h
DNA [2] = assay: Binding affinity to supercoiled circular Escherichia coli pBR322 DNA assessed as DNA intercalation at 20 to 100 uM by gel electrophoresis mobility shift assay; format: nucleic-acid assay
T-24 [3] = assay: Cell cycle arrest in human T24 cells assessed as accumulation at G2/M phase at 4.13 uM measured after 24 hrs by propidium iodide staining based fluorescence analysis (reference value: 10.16%); format: functional
T-24 [4] = assay: Induction of cell cycle arrest in human T24 cells assessed as upregulation of gammaH2AX expression at 2 to 8 uM by Western blot analysis; format: functional, cell-based
HepG2 [5] = assay: Antiproliferative activity against human HepG2 cells assessed as cell growth inhibition measured after 48 hrs by MTT assay; format: functional, cell-based; settings: HepG2, 48 h
T-24 [6] = assay: Induction of apoptosis in human T24 cells assessed as […] of Bax expression at 2 to 8 uM by Western blot analysis; format: functional, cell-based
[7] = Toxicity in mouse xenografted with human HepG2 cells assessed as adverse effect at 5 to 15 mg/kg; format: organism-based; settings: in vivo
T-24 [8] = assay: Induction of apoptosis in human T24 cells assessed as live cells at 2.06 uM by AnnexinV/propidium iodide staining based flow cytometry (reference value: 99.1%); format: functional
T-24 [9] = assay: Induction of apoptosis in human T24 cells assessed as […] of Bcl-2 expression at 2 to 8 uM by Western blot analysis; format: functional, cell-based
T-24 [10] = assay: Cell cycle arrest in human T24 cells assessed as accumulation at G1 phase at 8.26 uM measured after 24 hrs by propidium iodide staining based fluorescence analysis (reference value: 66.18%); format: functional
T-24 [11] = assay: Induction of cell cycle arrest in human T24 cells assessed as upregulation of p21 expression at 2 to 8 uM by Western blot analysis; format: functional, cell-based
DNA [12] = assay: Induction of DNA damage in human T24 cells assessed as inhibition of DNA replication at 10 uM measured after 24 hrs by EdU incorporation assay; format: cell-based; settings: T-24
[13] = Toxicity in mouse xenografted with human T24 cells assessed as effect on body weight at 5 to 15 mg/kg; format: organism-based, T-24; settings: in vivo
T-24 [14] = assay: Induction of apoptosis in human T24 cells assessed as late apoptotic cells at 8.26 uM by AnnexinV/propidium iodide staining based flow cytometry (reference value: 0%); format: functional
HepG2 [15] = assay: Anticancer activity against human HepG2 cells xenografted in mouse assessed as tumor inhibition rate at 15 mg/kg measured at day 14 relative to control; format: functional; settings: HepG2, 336 h
T-24 [16] = assay: Induction of apoptosis in human T24 cells assessed as late apoptotic cells at 2.06 uM by AnnexinV/propidium iodide staining based flow cytometry (reference value: 0%); format: functional
T-24 [17] = assay: Induction of apoptosis in human T24 cells assessed as early apoptotic cells at 2.06 uM by AnnexinV/propidium iodide staining based flow cytometry (reference value: 0.7%); format: functional
T-24 [18] = assay: Induction of apoptosis in human T24 cells assessed as pycnosis by AO/EB staining based assay; format: functional, cell-based
T-24 [19] = assay: Cell cycle arrest in human T24 cells assessed as accumulation at S phase at 8.26 uM measured after 24 hrs by propidium iodide staining based fluorescence analysis (reference value: 23.67%); format: functional
T-24 [20] = assay: Cell cycle arrest in human T24 cells assessed as accumulation at G1 phase at 4.13 uM measured after 24 hrs by propidium iodide staining based fluorescence analysis (reference value: 66.18%); format: functional
T-24 [21] = assay: Cell cycle arrest in human T24 cells assessed as accumulation at S phase at 4.13 uM measured after 24 hrs by propidium iodide staining based fluorescence analysis (reference value: 23.67%); format: functional
L02 = assay: Cytotoxicity against human HL7702 cells assessed as cell growth inhibition measured after 48 hrs by MTT assay; format: cell-based; settings: L02, 48 h
SMMC-7721 = assay: Antiproliferative activity against human SMMC7721 cells assessed as cell growth inhibition measured after 48 hrs by MTT assay; format: functional, cell-based; settings: SMMC-7721, 48 h
T-24 [22] = assay: Induction of apoptosis in human T24 cells by AnnexinV/propidium iodide staining based flow cytometry; format: functional, cell-based

CNCCN1C(=O)c2cccc3cc([N+](=O)[O-])cc(c23)C1=O
Activity [1]: Non-Toxic | IC50 (A549): 12.6 µM | Activity (DNA [2]): Active | Activity (T-24 [3]): 82.11% | Activity (T-24 [4]): Active | IC50 (HepG2 [5]): 9.2 µM | Activity (T-24 [6]): Active | Activity [7]: Non-Toxic | Activity (T-24 [8]): 98.8% | Activity (T-24 [9]): Active | Activity (T-24 [10]): 0.05% | Activity (T-24 [11]): Active | Activity (DNA [12]): Active | Activity [13]: Non-Toxic | Activity (T-24 [14]): 0% | inhibition in vivo at 15 mg/kg (HepG2 [15]): 60% | Activity (T-24 [16]): 0% | Activity (T-24 [17]): 0.9% | Activity (T-24 [18]): Active | Activity (T-24 [19]): 7.71% | Activity (T-24 [20]): 9.9% | Activity (T-24 [21]): 7.99% | IC50 (L02): 18.7 µM | IC50 (SMMC-7721): 14 µM | Activity (T-24 [22]): Dose-dependent effect
